According to PubChem BioAssay (NCI):
Where “and” joins values, the source holds several entries; their conditions need not be identical. Identical values can stand only once.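 How tested: cells in 96-well plates exposed to compound for 48 hours at five concentrations. Abbreviation: GI50, concentration required for 50% inhibition of growth. TGI: concentration producing complete growth inhibition.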 Where a SMILES comes first, the peptide text is derived from it.

How the values were obtained:
Assay in all cases: NCI anticancer screen, dose series, 48 h
A498 renal = test system: A498 renal
A549 NSCLC = test system: A549 NSCLC
ACHN renal = test system: ACHN renal
DU-145 prostate = test system: DU-145 prostate
HCT-15 colon = test system: HCT-15 colon
HS 578T breast = test system: HS 578T breast
KM12 colon = test system: KM12 colon
MDA-MB-231 breast = test system: MDA-MB-231 breast
NCI-H226 lung = test system: NCI-H226 lung
SF-539 CNS = test system: SF-539 CNS

Row | SMILES | GI50 (A498 renal) [µM] | TGI (A498 renal) | GI50 (A549 NSCLC) | TGI (A549 NSCLC) | GI50 (ACHN renal) [µM] | TGI (ACHN renal) [µM] | GI50 (DU-145 prostate) [µM] | TGI (DU-145 prostate) [µM] | GI50 (HCT-15 colon) [µM] | TGI (HCT-15 colon) | GI50 (HS 578T breast) [µM] | TGI (HS 578T breast) [µM] | GI50 (KM12 colon) [µM] | TGI (KM12 colon) | GI50 (MDA-MB-231 breast) [µM] | TGI (MDA-MB-231 breast) [µM] | GI50 (NCI-H226 lung) | TGI (NCI-H226 lung) | GI50 (SF-539 CNS) [µM] | TGI (SF-539 CNS)
1 | CN1CCC[C@@H]1CCO[C@](C)(c1ccccc1)c1ccc(Cl)cc1 | 10.7 | 23 µM | 7.92 µM | 21.7 µM | 6.31 | 19 | 12.6 | 25.2 | 4.4 | 16 µM | 12.2 | 36 | 7.04 | 20.2 µM | 2.79 | 13.5 | 10.5 µM | 25.3 µM | 9.94 | 23.7 µM
2 | CCOC(=O)c1c(C)nc2ccc(Cl)cc2c1-c1ccccc1 | 15.5 | 33.4 µM | 25.6 µM | > 100 µM | 17.1 | 35 | 31.6 | > 100 | 16.9 | 44.6 µM | 19.6 | 52.1 | 19.8 | 56.8 µM | 17.1 | 38.4 | 19.2 µM | 39.7 µM | 19.6 | 39.9 µM
3 | O=C(Nc1nccs1)c1cc2c(cc1Cl)Sc1nccn1S2(=O)=O | 19.2 | 34.8 µM | 23.8 µM | 63.4 µM | 17.7 | 32.2 | 16.3 | 30 | 12.2 | 33.9 µM | 28.5 | 91.7 | 12.4 | 26.6 µM | 19.5 | 36.2 | 19.6 µM | 35.6 µM | 19.4 | 37.5 µM
4 | Cn1cccc1-c1cc(-c2cccs2)[nH]c(=O)c1C#N | 17.9 | > 100 µM | > 100 µM | > 100 µM | > 100 | > 100 | > 100 | > 100 | > 100 | > 100 µM | > 100 | > 100 | > 100 | > 100 µM | > 100 | > 100 | > 100 µM | > 100 µM | > 100 | > 100 µM
5 | O=C1/C(=C\C(Cl)=C/c2ccc([N+](=O)[O-])cc2)SC(=S)N1CCc1ccc(O)cc1 | 1.63 | 3.07 µM | 1.6 µM | 8.79 µM | 0.249 | 0.584 | 0.471 | 1.72 | 0.246 | 0.741 µM | 0.354 | 2.04 | 0.312 | 1.05 µM | 0.449 | 2.03 | 1.35 µM | 3.48 µM | 0.328 | 1.12 µM
6 | COc1ccc(-c2nn(-c3cccc(NC(=O)Nc4ccc(Cl)c(C(F)(F)F)c4)c3)cc2-c2ccncc2)cc1Cl | 2.4 | 8.01 µM | 1.98 µM | > 100 µM | 2.32 | 13.8 | 4.47 | > 100 | 2.37 | 19.2 µM | 2.27 | 9.3 | 2 | 8.55 µM | 2.29 | 7.35 | 2.53 µM | 8.22 µM | 2.04 | 5.11 µM
7 | Cc1cccc2c(N=Nc3ccc(S(N)(=O)=O)cc3)c(O)[nH]c12 | > 25 | > 25 µM | > 25 µM | > 25 µM | > 25 | > 25 | > 25 | > 25 | > 25 | > 25 µM | > 25 | > 25 | > 25 | > 25 µM | > 25 | > 25 | > 25 µM | > 25 µM | > 25 | > 25 µM
8 | Cc1c2c(nn1C(=O)c1nn(-c3ccc(Cl)cc3)cc1O)-c1ccccc1CC2 | 0.0181 | 0.0612 µM | 0.0343 µM | > 100 µM | 0.0456 | > 100 | 0.0497 | > 100 | 0.0496 | > 100 µM | 0.0201 | > 100 | 0.0632 | > 100 µM | 1.62 | > 100 | 0.0968 µM | > 25.7 µM | 0.041 | 28.1 µM
9 | O=C1C(=O)c2ccccc2-c2ccccc21 | 1.8 | 3.32 µM | 2.48 µM | 6.54 µM | 1.44 | 2.84 | 1.68 | 3.07 | 1.05 | 2.92 µM | 3.14 | 9.86 | 1.86 | 3.4 µM | 1.42 | 3.19 | 1.72 µM | 3.18 µM | 1.6 | 2.99 µM
10 | CN[C@]12CC3(C=CC(=O)C=C3)O[C@@]1(Cc1ccc(OC)cc1)N(C)C(=O)N2 | 16.2 | 31.6 µM | 3.11 µM | 14 µM | 1.67 | 4 | 4.3 | 14.9 | 1.64 | 10.3 µM | 4.62 | > 100 | 1.69 | 3.54 µM | 4.2 | 15.1 | 3.46 µM | 15.9 µM | 1.9 | 3.97 µM
11 | COc1ccc(-c2cnc3ccnn3c2-c2cc(OC)c(OC)c(OC)c2)cc1 | 0.293 | 4.47 µM | 3.85 µM | > 100 µM | 6.19 | > 100 | 4.23 | > 100 | 2.12 | > 100 µM | 2.37 | > 100 | 1.67 | > 100 µM | 4.3 | 65.7 | 8.13 µM | > 100 µM | 1.99 | 6.11 µM
12 | CC(=O)O[C@H]1C(=O)O[C@@H]2C[C@H]3C(C)=CC(=O)[C@@H](O)[C@]3(C)[C@H]3[C@@]4(O)OC[C@]32[C@@H]1[C@@H](C)[C@H]4O | 0.187 | 1.19 µM and 0.385 µM | 0.23 µM and 0.431 µM | 3.32 µM and 3.93 µM |  | 0.394 |  | 0.176 | 0.0399 | 0.738 µM and 1.03 µM |  | 0.19 | 0.0178 | 0.317 µM and 0.306 µM |  | 0.399 | < 0.0205 µM and 0.0366 µM | 0.0775 µM and 0.166 µM | < 0.01 | 0.0151 µM and 0.0663 µM
13 | c1cc(OCCN2CCCCCC2)ccc1CNc1ccc2nc(CCC3CCCCC3)[nH]c2c1 | 1.94 | 4.95 µM | 3.05 µM | 11 µM | 2.68 | 7.97 | 3.9 | 14.6 | 1.59 | 3.67 µM | 1.7 | 4.94 | 2.84 | 9.07 µM | 1.56 | 2.97 | 1.88 µM | 5.19 µM | 1.63 | 3.11 µM
14 | O=c1cc(-c2ccc(Cl)cc2)[nH]c2ncccc12 |  | > 100 µM |  | > 100 µM |  | > 100 |  | > 100 |  | > 100 µM |  | > 100 |  | > 100 µM |  | > 100 |  | > 100 µM |  | > 100 µM
15 | ClCc1ccc(-c2ccc(Cn3cnc4c(Cl)nc(Cl)nc43)cc2)cc1 | 2.33 | 11.4 µM | 1.73 µM | 3.59 µM | 2.05 | 4.25 | 1.58 | 2.94 | 1.67 | 3.35 µM | 3.14 | 11.1 | 2.12 | 4.4 µM | 2.76 | 7.14 | 8.85 µM | 28.5 µM | 2.14 | 4.99 µM
16 | NC(CNO)C(=O)O (configuration not stated) |  | > 100 µM |  | > 100 µM |  | > 100 |  | > 100 |  | > 100 µM |  | > 100 |  | > 100 µM |  | > 100 |  | > 100 µM |  | > 100 µM
17 | COc1cc(/C=C/C(=O)c2ccc(Nc3ncnc4ccccc34)cc2)cc(OC)c1 | 5.86 | > 100 µM | 3.2 µM | 14.4 µM | 13.9 | 63.9 | 6.71 | 22.2 | 7.63 | 48.7 µM | 8.21 | 69.8 | 1.77 | 5.38 µM | 13.5 | 49.1 | 2.45 µM | 8.91 µM | 4.98 | 18 µM
18 | S=c1nc2[nH]ncc2c(N/N=C/c2ccccc2)[nH]1 | 15.3 | 73.4 µM | 98.3 µM | > 100 µM | 63.3 | > 100 | > 100 | > 100 | 81.3 | > 100 µM | > 100 | > 100 | > 100 | > 100 µM | 19.8 | 71.4 | > 100 µM | > 100 µM | > 100 | > 100 µM
19 | C=C1C(=O)O[C@H]2[C@H]1CC/C(Cn1cc(Cn3ccc4ccccc43)nn1)=C\CC[C@@]1(C)O[C@@H]21 | 4.3 | 16.6 µM | 13.1 µM | 27.4 µM | 1.18 | 2.43 | 1.64 | 3.01 | 1.3 | 2.77 µM | 2.9 | 14.2 | 4.21 | 15.2 µM | 1.31 | 2.84 | 1.53 µM | 3.06 µM | 1.86 | 3.35 µM
20 | Cn1ncc2c(/N=C/c3cccs3)[nH]c(=S)nc21 | 0.689 | 27.5 µM | 47.4 µM | > 100 µM | 37.6 | > 80 | 25.6 | > 70.5 | 42.4 | > 100 µM | 24.9 | 77 | 28.8 | > 59.4 µM | 20.3 | > 67.5 | 10.5 µM | 40.9 µM | 32.2 | > 100 µM
21 | O=C(Nc1n[nH]c2nc(-c3ccco3)ccc12)C1CC1 | > 25 | > 25 µM | > 25 µM | > 25 µM | > 25 | > 25 | > 25 | > 25 | > 25 | > 25 µM | > 25 | > 25 | > 25 | > 25 µM | > 25 | > 25 | > 25 µM | > 25 µM | > 25 | > 25 µM
22 | O=C(Nc1ccccc1)Nc1cccc(-n2cc(-c3ccncc3)c(-c3ccc(O)c(Cl)c3)n2)c1 | 2.5 | 8.37 µM | 3.64 µM | > 100 µM | 2.95 | 34.7 | 5.66 | > 100 | 2.84 | > 100 µM | 3.24 | > 100 | 3.3 | 10.5 µM | 1.98 | 5.23 | 7.35 µM | > 100 µM | 1.96 | 4.5 µM
23 | CC(C)CC(NC(=O)C(CC(C)C)NC(=O)C(Cc1cnc[nH]1)NC(=O)C(C)NC(=O)C(NC(=O)C(C)NC(=O)C(Cc1c[nH]c2ccccc12)NC(=O)C(CCC(=O)O)NC(=O)C(N)Cc1ccccc1)C(C)C)C(N)=O (configuration not stated) (H-FEWAVAHLL-NH2; configuration not given here) | > 100 | > 100 µM | > 100 µM | > 100 µM |  | > 100 |  | > 12.5 | > 100 | > 100 µM |  | > 12.5 | > 100 | > 100 µM |  | > 12.5 |  | > 12.5 µM | > 100 | > 100 µM
24 | N#CC(=S)Nc1ccc(Cl)c(Cl)c1 |  | 51.8 µM |  | > 100 µM |  | 82.5 |  | > 100 |  | 49.6 µM | 11.3 | > 100 |  | > 95.6 µM |  | 43.4 |  | 60.5 µM |  | 48.5 µM
25 | CCOC(=O)c1c(-c2ccccc2)[n+](=O)c2ccc(Cl)cc2n1[O-] | 12.7 | 26.2 µM | 8.46 µM | 20.6 µM | 2.93 | 11.3 | 3.22 | 11.9 | 3.89 | 13.6 µM | 4.63 | 31.8 | 5.43 | 18 µM | 3.58 | 13.8 | 5.2 µM | 17.4 µM | 2.97 | 13.1 µM
